The record followed here is publication PMC5531494, “Target specificity, in vivo pharmacokinetics, and efficacy of the putative STAT3 inhibitor LY5 in osteosarcoma, Ewing's sarcoma, and rhabdomyosarcoma” (PLoS ONE, 2017).

The structures appear in SMILES notation. Marks after values point to notes of the source that are not given here.

One experiment relates to OS-1. The experiment in a line: Subcutaneous xenograft study. The settings on record: OS-1, 40 mg/kg twice per day for five days for four consecutive weeks. The experiment is classed as in vivo, mice. The protocol: C.B-17SC scid^-/- female mice (Taconic Farms, Germantown NY), were used to propagate subcutaneously implanted tumors. All mice were maintained under barrier conditions and experiments were conducted using protocols and conditions approved by the institutional animal care and use committee at University of Texas Health Science Center at San Antonio. Ten mice were used in each control or treatment group. Tumor volumes (cm^3) were determined and responses were determined using three activity measures as previously described.
The data were analyzed by using GraphPad Prism software (GraphPad Software, Inc., San Diego, CA). Data are presented as mean ± standard deviation. Data were analyzed by one-way analysis of variance (ANOVA), and Tukey’s post-test was used to assess differences between groups. Differences were considered statistically significant at p < 0.05. For in vivo xenograft models, an event was defined as four times the tumor volume at baseline similar to the PPTP criteria. […] The anti-tumor efficacy of LY5 was analyzed by using the statistical pipeline developed in PPTP [27].
Fig 6 Effects of LY5 are not mediated via STAT3 inhibition. […] After 72 hours of transfection, cells were harvested and analyzed for total (T) STAT3 and GAPDH protein expression by immunoblotting. […] Cell viability was then determined using Alamar Blue staining. […]

The target in a further experiment is STAT3 (Homo sapiens, UniProt P40763). The experiment in a line: pSTAT3 in pulmonary metastatic lesions, IHC and Western blotting. The experiment is classed as in vivo, mice. Set-up: from tissue; host or cells: OS-17-luc lung metastases and OS-1 subcutaneous PDX tumours in C.B-17 scid mice. The following applies: 20 mg/kg LY5 daily for 30 days; immunohistochemistry and Western blotting. The protocol: The ability of LY5 to inhibit pulmonary metastases was evaluated using a murine model of OS pulmonary metastasis. 8-week-old C.B-17 scid -/- female mice (Envigo, Madison, WI) received IV inoculation with 10^6 OS-17-luc cells expressing a luciferase reporter gene. OS-17-luc cells were generated by infecting OS-17 wild type cells with lentivirus containing the firefly luciferase under a CMV promoter (Cellomics Technology, Hallethorpe, MD) and selected with 0.5 ug/mL puromycin (Thermo Fisher Scientific, Waltham, MA). Beginning 24 hrs after inoculation, mice received vehicle (n = 10) or 20 mg/kg LY5 once daily via oral gavage (n = 9, one mouse died within 24 hrs after cell inoculation). LY5 was prepared by diluting a 40 mg/mL solution/slurry with a 50% propylene glycol/1% Tween 20 in water vehicle immediately before administration. Mice were treated with LY5 for 30 days, and bioluminescent imaging (after IP luciferin administration) was performed to determine pulmonary metastatic disease load. To investigate the pharmacodynamics (PD) effects of LY5, pSTAT3 (p-Tyr705, ab76315, Abcam) and total STAT3 (ab119352, Abcam) were evaluated in pulmonary metastatic lesions using IHC in lung samples from mice euthanized 24 hrs after their last dose.
Sequence of STAT3 (P40763 whole entry): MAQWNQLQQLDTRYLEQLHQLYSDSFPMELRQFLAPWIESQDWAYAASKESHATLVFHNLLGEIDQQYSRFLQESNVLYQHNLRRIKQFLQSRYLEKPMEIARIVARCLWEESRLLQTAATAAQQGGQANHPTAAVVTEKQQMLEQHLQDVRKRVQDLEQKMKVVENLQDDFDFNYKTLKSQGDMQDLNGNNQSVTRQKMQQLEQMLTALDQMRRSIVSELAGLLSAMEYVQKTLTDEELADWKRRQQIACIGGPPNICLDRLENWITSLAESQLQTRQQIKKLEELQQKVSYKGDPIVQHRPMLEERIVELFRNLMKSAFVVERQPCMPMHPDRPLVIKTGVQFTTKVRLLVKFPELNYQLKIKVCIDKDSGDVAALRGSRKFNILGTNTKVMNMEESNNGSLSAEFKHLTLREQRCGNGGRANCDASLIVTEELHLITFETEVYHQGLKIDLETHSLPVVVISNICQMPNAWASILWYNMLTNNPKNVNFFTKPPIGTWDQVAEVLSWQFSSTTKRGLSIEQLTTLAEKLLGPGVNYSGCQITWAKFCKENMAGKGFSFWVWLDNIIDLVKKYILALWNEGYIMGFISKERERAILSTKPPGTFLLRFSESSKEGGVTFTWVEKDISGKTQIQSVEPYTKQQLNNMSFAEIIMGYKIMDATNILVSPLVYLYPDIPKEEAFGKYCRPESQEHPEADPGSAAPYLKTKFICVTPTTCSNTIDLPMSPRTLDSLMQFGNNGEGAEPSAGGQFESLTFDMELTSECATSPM
(A-B) IHC staining of lung metastasis from mice treated with LY5. The metastatic tumor sections were stained with pSTAT3 or hematoxylin and eosin. […]
On the technique in general: A western blot detects proteins with antibodies after separation by electrophoresis.

Turning to `NS(=O)(=O)c1cccc2c1C(=O)C=C(Nc1cccnc1)C2=O` [LY5, 5,8-dioxo-6-(pyridin-3-ylamino)-5,8-dihydronaphthalene-1-sulfonamide], in the experiment on OS-1, the “Group Response” value was “PD2^f (Progressive disease 2, >50% TGI, >25% tumor progression)” and the “Survival (%)” value was determined as 90%. For the same compound, the “STAT3 phosphorylation in pulmonary metastatic lesions” value on STAT3 is reported as “inhibited STAT3 phosphorylation”.
